Assay results: patent publication US8124744B2, “Macrolide derivatives” (Taisho Pharmaceutical Co., Ltd., priority 2006, dated 2012)
Converted amounts (≈) assume the structure as drawn.

How the values were obtained:
pro MMP-9 protein = test: Inhibitory activity against proMMP-9 protein production (TNF α-stimulated mouse peritoneal exudate cells, ELISA); format: cell-based, C57BL/6J mice; settings: relative activity when the value of Comparative Agent 1 (IC50 = 10.04 ± 4.11 μM) is 10, on the increase of pro MMP-9 by TNF α 25 ng/ml, 24 hours, read-out: IC50 (μM)*
Experimental: (§1) To 7- to 9-week male C57BL/6J mice (purchased from CLEA Japan, Inc. or Japan SLC, Inc.), Zymosan A (SIGMA) derived from budding yeasts which is adjusted to be 1 mg/ml in a phosphate buffer solution (PBS, 10010-49, Invitrogen) was administered intraperitoneally at 1 ml per mouse to induce peritonitis. Three days later, filter-sterilized cell recovery buffer (2 mM EDTA, 0.5% bovine serum albumin, PBS, pH 7.4) was administered intraperitoneally at 5 ml per mouse to recover peritoneal exudata cells. The cells went through a cell strainer (70 μm nylon, FALCON) and were then washed twice with a Hanks solution (Invitrogen). The cells were suspended in 10% fetal calf serum-containing Dulbecco's modified Eagle's culture medium (Invitrogen). The suspension was seeded on a plate with 48 wells, after 6 hours, the culture medium was completely exchanged. After culturing for another 18 hours, test compounds were added at 0.02 to 20 μM of the final concentration. After 1 hour from the addition of the compounds, a tumor necrosis factor (TNF) α (R & D Systems) was added at 25 ng/ml of the final concentration, and 24 hours later, the culture supernatant was collected. The amount of pro MMP-9 protein in the supernatant was quantified by an enzyme-linked immunosorbent assay (ELISA) (R & D Systems), IC50 values of the test compounds on the increased amount by TNF α stimuli, were calculated by ORIGIN analysis software (trade name: OriginLab). In addition, minimal inhibitory concentration (MIC) of each test compounds (measured bacterium: Staphylococcus aureus ATCC29213) was measured. As a comparative agent […] A (clarithromycin) was used.

[1] = test system: Staphylococcus aureus ATCC29213; test: Minimal inhibitory concentration (MIC); format: cell-based
Experimental: as §1

IC50 (pro MMP-9 protein) | MIC [1] | Compound
3.24 µM | > 128 µg/mL | CC[C@H]1OC(=O)[C@H](C)[C@@H](O[C@H]2C[C@@](C)(OC)[C@@H](O)[C@H](C)O2)[C@H](C)[C@@H](O[C@@H]2O[C@H](C)C[C@@H](N(C)Cc3ccncc3)[C@@H]2N(C)C)[C@@](C)(OC)C[C@@H](C)C(=O)[C@H](C)[C@@H](O)[C@]1(C)O [Example 188, 3′-N-demethyl-2′-deoxy-2′-dimethylamino-3′-N-(4-pyridylmethyl)-6-O-methylerythromycin A]
3.38 µM | > 128 µg/mL | CC[C@H]1OC(=O)[C@H](C)[C@@H](O[C@H]2C[C@@](C)(OC)[C@@H](OC(C)=O)[C@H](C)O2)[C@H](C)[C@@H](O[C@@H]2O[C@H](C)C[C@@H](N(C)Cc3cccnc3)[C@@H]2N(C)C)[C@@](C)(OC)C[C@@H](C)C(=O)[C@H](C)[C@@H](O)[C@]1(C)O [Example 189, 4″-O-acetyl-3′-N-demethyl-2′-deoxy-2′-dimethylamino-3′-N-(3-pyridylmethyl)-O-methylerythromycin A]
3.82 µM | > 128 µg/mL | CC[C@H]1OC(=O)[C@H](C)[C@@H](O[C@H]2C[C@@](C)(OC)[C@@H](O)[C@H](C)O2)[C@H](C)[C@@H](O[C@@H]2O[C@H](C)C[C@@H](N(C)Cc3cccnc3)[C@@H]2N(C)C)[C@@](C)(OC)C[C@@H](C)C(=O)[C@H](C)[C@@H](O)[C@]1(C)O [Example 190, 3′-N-demethyl-2′-deoxy-2′-dimethylamino-3′-N-(3-pyridylmethyl)-6-O-methylerythromycin A]
1.42 µM | 128 µg/mL (≈ 143 µM) | CC[C@H]1OC(=O)[C@H](C)[C@@H](O[C@H]2C[C@@](C)(OC)[C@@H](OC(C)=O)[C@H](C)O2)[C@H](C)[C@@H](O[C@@H]2O[C@H](C)C[C@@H](N(C)Cc3ccccn3)[C@@H]2N(C)C)[C@@](C)(OC)C[C@@H](C)C(=O)[C@H](C)[C@@H](O)[C@]1(C)O [Example 191, 4″-O-acetyl-3′-N-demethyl-2′-deoxy-2′-dimethylamino-3′-N-(2-pyridylmethyl)-6-O-methylerythromycin A]
2.46 µM | > 128 µg/mL | CC[C@H]1OC(=O)[C@H](C)[C@@H](O[C@H]2C[C@@](C)(OC)[C@@H](O)[C@H](C)O2)[C@H](C)[C@@H](O[C@@H]2O[C@H](C)C[C@@H](N(C)Cc3ccccn3)[C@@H]2N(C)C)[C@@](C)(OC)C[C@@H](C)C(=O)[C@H](C)[C@@H](O)[C@]1(C)O [Example 192, 3′-N-demethyl-2′-deoxy-2′-dimethylamino-3′-N-(2-pyridylmethyl)-6-O-methylerythromycin A]
1.23 µM | > 128 µg/mL | CC[C@H]1OC(=O)[C@H](C)[C@@H](O[C@H]2C[C@@](C)(OC)[C@@H](O)[C@H](C)O2)[C@H](C)[C@@H](O[C@@H]2O[C@H](C)C[C@@H](N(C)CCc3ccccc3)[C@@H]2N(C)C)[C@@](C)(OC)C[C@@H](C)C(=O)[C@H](C)[C@@H](O)[C@]1(C)O [Example 194, 3′-N-demethyl-2′-deoxy-2′-dimethylamino-3′-N-(2-phenethyl)-6-O-methylerythromycin A]
2.88 µM | > 128 µg/mL | CC[C@H]1OC(=O)[C@H](C)[C@@H](O[C@H]2C[C@@](C)(OC)[C@@H](OC(C)=O)[C@H](C)O2)[C@H](C)[C@@H](O[C@@H]2O[C@H](C)C[C@@H](N(C)CCCO)[C@@H]2N(C)C)[C@@](C)(OC)C[C@@H](C)C(=O)[C@H](C)[C@@H](O)[C@]1(C)O [Example 198, 4″-O-acetyl-3′-N-demethyl-2′-deoxy-2′-dimethylamino-3′-N-(3-hydroxypropyl)-6-O-methylerythromycin A]
3.6 µM | > 128 µg/mL | CC[C@H]1OC(=O)[C@H](C)[C@@H](O[C@H]2C[C@@](C)(OC)[C@@H](O)[C@H](C)O2)[C@H](C)[C@@H](O[C@@H]2O[C@H](C)C[C@@H](N(C)CCCO)[C@@H]2N(C)C)[C@@](C)(OC)C[C@@H](C)C(=O)[C@H](C)[C@@H](O)[C@]1(C)O [Example 199, 3′-N-demethyl-2′-deoxy-2′-dimethylamino-3′-N-(3-hydroxypropyl)-6-O-methylerythromycin A]
4.45 µM | > 128 µg/mL | CC[C@H]1OC(=O)[C@H](C)[C@@H](O[C@H]2C[C@@](C)(OC)[C@@H](O)[C@H](C)O2)[C@H](C)[C@@H](O[C@@H]2O[C@H](C)C[C@@H](N3CC[C@H](O)C3)[C@@H]2N(C)C)[C@@](C)(OC)C[C@@H](C)C(=O)[C@H](C)[C@@H](O)[C@]1(C)O [Example 201, 3′-dedimethylamino-2′-deoxy-2′-dimethylamino-3′-((S)-3-hydroxypyrrolidin-1-yl)-6-O-methylerythromycin A]
5.03 µM | > 128 µg/mL | CC[C@H]1OC(=O)[C@H](C)[C@@H](OC(C)=O)[C@H](C)[C@@H](O[C@@H]2O[C@H](C)C[C@@H](N3CCOCC3)[C@@H]2N(C)C)[C@@](C)(OC)C[C@@H](C)C(=O)[C@H](C)[C@@H](O)[C@]1(C)O [Example 203, 3-O-acetyl-5-O— (3′-dedimethylamino-2′-deoxy-2′-dimethylamino-3′-(4-morpholino)desosaminyl)-6-O-methylerythronolide A]

The next lines start with the compound.

Compound | IC50 (pro MMP-9 protein) | MIC [1]
CC[C@H]1OC(=O)[C@H](C)[C@@H](O[C@H]2C[C@@](C)(OC)[C@@H](OC(C)=O)[C@H](C)O2)[C@H](C)[C@@H](O[C@@H]2O[C@H](C)C[C@@H](NC)[C@@H]2N(C)C)[C@@](C)(OC)C[C@@H](C)C(=O)[C@H](C)[C@@H](O)[C@]1(C)O [Example 174, 4″-O-acetyl-3′-N-demethyl-2′-deoxy-2′-dimethylamino-6-O-methylerythromycin A] | 1.7 µM | > 128 µg/mL
CC[C@H]1OC(=O)[C@H](C)[C@@H](O[C@H]2C[C@@](C)(OC)[C@@H](O)[C@H](C)O2)[C@H](C)[C@@H](O[C@@H]2O[C@H](C)C[C@@H](NC)[C@@H]2N(C)C)[C@@](C)(OC)C[C@@H](C)C(=O)[C@H](C)[C@@H](O)[C@]1(C)O [Example 175, 3′-N-demethyl-2′-deoxy-2′-dimethylamino-6-O-methylerythromycin A] | 1.65 µM | 128 µg/mL (≈ 168 µM)
CC[C@H]1OC(=O)[C@H](C)[C@@H](O[C@H]2C[C@@](C)(OC)[C@@H](OC(C)=O)[C@H](C)O2)[C@H](C)[C@@H](O[C@@H]2O[C@H](C)C[C@@H](N3CCOCC3)[C@@H]2N(C)C)[C@@](C)(OC)C[C@@H](C)C(=O)[C@H](C)[C@@H](O)[C@]1(C)O [Example 177, 4″-O-acetyl-3′-dedimethylamino-2′-deoxy-2′-dimethylamino-3′-(4-morpholino)-6-O-methylerythromycin A] | 4.42 µM | > 128 µg/mL
CC[C@H]1OC(=O)[C@H](C)[C@@H](O[C@H]2C[C@@](C)(OC)[C@@H](O)[C@H](C)O2)[C@H](C)[C@@H](O[C@@H]2O[C@H](C)C[C@@H](N3CCOCC3)[C@@H]2N(C)C)[C@@](C)(OC)C[C@@H](C)C(=O)[C@H](C)[C@@H](O)[C@]1(C)O [Example 178, 3′-dedimethylamino-2′-deoxy-2′-dimethylamino-3′-(4-morpholino)-6-O-methylerythromycin A] | 3.1 µM | > 128 µg/mL
CC[C@H]1OC(=O)[C@H](C)[C@@H](O[C@H]2C[C@@](C)(OC)[C@@H](O)[C@H](C)O2)[C@H](C)[C@@H](O[C@@H]2O[C@H](C)C[C@@H](N(C)Cc3ccc(N4CCOCC4)cc3)[C@@H]2N(C)C)[C@@](C)(OC)C[C@@H](C)C(=O)[C@H](C)[C@@H](O)[C@]1(C)O [Example 182, 3′-N-demethyl-2′-deoxy-2′-dimethylamino-3′-N-(4-(4-morpholino)benzyl)methyl-6-O-methylerythromycin A] | 1.72 µM | > 128 µg/mL
CC[C@H]1OC(=O)[C@H](C)[C@@H](O[C@H]2C[C@@](C)(OC)[C@@H](OC(C)=O)[C@H](C)O2)[C@H](C)[C@@H](O[C@@H]2O[C@H](C)C[C@@H](N(C)S(C)(=O)=O)[C@@H]2N(C)C)[C@@](C)(OC)C[C@@H](C)C(=O)[C@H](C)[C@@H](O)[C@]1(C)O [Example 185, 4″-O-acetyl-3′-N-demethyl-2′-deoxy-2′-dimethylamino-3′-N-methanesulfonyl-6-O-methylerythromycin A] | 2.4 µM | > 128 µg/mL
CC[C@H]1OC(=O)[C@H](C)[C@@H](O[C@H]2C[C@@](C)(OC)[C@@H](O)[C@H](C)O2)[C@H](C)[C@@H](O[C@@H]2O[C@H](C)C[C@@H](N(C)S(C)(=O)=O)[C@@H]2N(C)C)[C@@](C)(OC)C[C@@H](C)C(=O)[C@H](C)[C@@H](O)[C@]1(C)O [Example 186, 3′-N-demethyl-2′-deoxy-2′-dimethylamino-3′-N-methanesulfonyl-6-O-methylerythromycin A] | 4.01 µM | > 128 µg/mL
CC[C@H]1OC(=O)[C@H](C)[C@@H](O[C@H]2C[C@@](C)(OC)[C@@H](OC(C)=O)[C@H](C)O2)[C@H](C)[C@@H](O[C@@H]2O[C@H](C)C[C@@H](N(C)Cc3ccncc3)[C@@H]2N(C)C)[C@@](C)(OC)C[C@@H](C)C(=O)[C@H](C)[C@@H](O)[C@]1(C)O [Example 187, 4″-O-acetyl-3′-N-demethyl-2′-deoxy-2′-dimethylamino-3′-N-(4-pyridylmethylamino)-6-O-methylerythromycin A] | 1.37 µM | > 128 µg/mL
